{
  "source": "patent US20090155318A1",
  "about": "“PROCESS TO FORM NANO-SIZED MATERIALS, THE COMPOSITIONS AND USES THEREOF” (priority 2006, published 2009)",
  "test": "solubility (saturation concentration) of the salts in water versus temperature, FIG. 2",
  "assay_type": "physicochemical",
  "conditions": "at 0° C., aqueous, read from FIG. 2",
  "data": [
    {"smiles": "[Cl-].[K+]", "note": "[KCl]", "values": [
      {"measurement": "saturation concentration in water", "value": "about 0.41 moles/100 g H2O"}
    ]}
  ]
}
